Our source for the EC50 values is US20240247080A1, “GLP1/GIP/NPY2 RECEPTOR TRIPLE AGONISTS” (Boehringer Ingelheim International GmbH, priority 2022, published 2024).

pEC50: −log10 of the molar value. Where two headings read alike, the source gives them in different places. Starred links: 1 amine or outer side, 2 acyl side, 3 side chain; linkers in the order of their positions; H or OH if unused. Positions of bridges follow the written chain, without caps; N, C: chain ends. Non-standard residues stand in square brackets, D forms with d. Groups on a side chain read outwards from the residue. Chains are numbered I, II in the order given. No end group written: not given here. *: point of attachment. C20 diacid = O=C(O)CCCCCCCCCCCCCCCCCCC(=O)*; C18 diacid = O=C(O)CCCCCCCCCCCCCCCCC(=O)*; γGlu = O=C(O)[C@H](CCC(=O)[*:2])N[*:1]; εLys = N[C@@H](CCCCN[*:1])C(=O)[*:2]; AEEA = NCCOCCOCC(=O)O; Aib = CC(C)(N)C(=O)O

Type in all cases: cell-based
Conditions in all cases: CreLuc reporter gene assay

Test [1] concerns the target T1, hGLP1R (Homo sapiens, UniProt P43220).
T1 construct: expressed in transfected cells; host or cells: HEK-293 cells carrying a CRE-luciferase reporter gene
Briefly: hGLP1R CreLuc reporter gene assay in 0.5% and 100% plasma. An outline of the steps: (§1)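 Agonist EC50s came from 8-concentration curves over four decades, fitted by non-linear variable-slope regression of CRE-driven luciferase luminescence. Cells were exposed 4 h at 37 °C, in buffer with 0.5% human plasma or in 100% plasma; GIPR was expressed in CHO cells, GLP-1R and NPY2R in HEK cells.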
On the technique in general: A reporter such as luciferase makes a cellular process visible.

For test [2], the target named is T2, hNPY2R (Homo sapiens, UniProt P49146).
T2 construct: expressed in transfected cells; host or cells: HEK-293 cells carrying a CRE-luciferase reporter gene
T2 sequence (P49146 1-381): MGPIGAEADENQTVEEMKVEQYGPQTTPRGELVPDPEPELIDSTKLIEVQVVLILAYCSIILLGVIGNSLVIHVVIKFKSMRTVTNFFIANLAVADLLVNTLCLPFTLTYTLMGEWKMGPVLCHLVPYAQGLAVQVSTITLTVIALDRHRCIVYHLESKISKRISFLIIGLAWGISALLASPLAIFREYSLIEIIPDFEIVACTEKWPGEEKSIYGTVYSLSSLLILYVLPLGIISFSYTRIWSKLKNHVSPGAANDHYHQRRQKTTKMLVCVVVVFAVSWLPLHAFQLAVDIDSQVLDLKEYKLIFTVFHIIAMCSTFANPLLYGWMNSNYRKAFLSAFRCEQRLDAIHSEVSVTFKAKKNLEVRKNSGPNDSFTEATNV
Briefly: hNPY2R CreLuc reporter gene assay in 0.5% and 100% plasma. The method in brief:
as §1

The target in test [3] is T3, hGIPR (Homo sapiens, UniProt P48546).
T3 construct: expressed in transfected cells; host or cells: CHO cells carrying a CRE-luciferase reporter gene
T3 sequence (P48546 22-466): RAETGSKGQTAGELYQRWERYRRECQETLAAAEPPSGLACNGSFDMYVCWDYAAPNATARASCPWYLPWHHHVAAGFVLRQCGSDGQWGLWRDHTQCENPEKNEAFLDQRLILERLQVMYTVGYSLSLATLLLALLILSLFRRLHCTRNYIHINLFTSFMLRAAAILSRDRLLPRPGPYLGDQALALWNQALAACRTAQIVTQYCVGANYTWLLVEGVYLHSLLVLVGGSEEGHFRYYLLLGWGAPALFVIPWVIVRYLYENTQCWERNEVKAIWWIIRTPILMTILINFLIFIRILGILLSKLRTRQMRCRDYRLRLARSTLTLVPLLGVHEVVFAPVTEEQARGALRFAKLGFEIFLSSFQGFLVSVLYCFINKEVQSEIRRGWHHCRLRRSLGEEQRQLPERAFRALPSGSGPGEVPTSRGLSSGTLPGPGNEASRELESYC
Briefly: hGIPR CreLuc reporter gene assay in 0.5% and 100% plasma. The method in brief:
as §1

[4] abbreviates: 0.5% human plasma, read-out: hGLP1R 0.5% hP.
[5] abbreviates: 100% human plasma, read-out: hGLP1R 100% hP.
The mark [6] stands for this setting: 0.5% human plasma, read-out: hNPY2R 0.5% hP.
The mark [7] stands for this setting: 100% human plasma, read-out: hNPY2R 100% hP.
Where [8] appears, read: 0.5% human plasma, read-out: hGIPR 0.5% hP.
The mark [9] stands for this setting: 100% human plasma, read-out: hGIPR 100% hP.

T1 sequence (P43220 24-463): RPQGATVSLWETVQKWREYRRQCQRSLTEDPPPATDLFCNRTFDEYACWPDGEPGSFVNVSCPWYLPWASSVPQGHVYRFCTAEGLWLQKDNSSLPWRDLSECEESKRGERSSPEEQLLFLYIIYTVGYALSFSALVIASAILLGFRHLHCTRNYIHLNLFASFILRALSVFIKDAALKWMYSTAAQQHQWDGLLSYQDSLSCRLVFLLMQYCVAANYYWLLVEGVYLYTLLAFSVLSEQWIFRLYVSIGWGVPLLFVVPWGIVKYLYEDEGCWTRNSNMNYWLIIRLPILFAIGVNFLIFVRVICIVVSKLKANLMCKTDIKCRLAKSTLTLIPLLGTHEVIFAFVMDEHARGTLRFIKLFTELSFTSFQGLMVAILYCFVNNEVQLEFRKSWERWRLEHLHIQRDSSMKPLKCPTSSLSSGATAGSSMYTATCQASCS

On to `CC[C@H](C)[C@H](NC(=O)[C@H](CC(C)C)NC(=O)[C@H](Cc1c[nH]c2ccccc12)NC(=O)[C@H](CCC(=O)O)NC(=O)[C@@H](NC(=O)[C@H](Cc1ccccc1)NC(=O)[C@H](C)NC(=O)C(C)(C)NC(=O)[C@H](CCC(N)=O)NC(=O)[C@H](C)NC(=O)[C@H](CCC(N)=O)NC(=O)[C@H](CCCCN)NC(=O)[C@H](CCC(=O)O)NC(=O)[C@H](CC(C)C)NC(=O)C(C)(C)NC(=O)[C@@H](NC(=O)[C@H](CO)NC(=O)[C@H](Cc1ccc(O)cc1)NC(=O)[C@H](CC(=O)O)NC(=O)[C@H](CO)NC(=O)[C@@H](NC(=O)[C@H](Cc1ccccc1)NC(=O)[C@@H](NC(=O)CNC(=O)[C@H](CCC(=O)O)NC(=O)C(C)(C)NC(=O)[C@@H](N)Cc1ccc(O)cc1)[C@@H](C)O)[C@@H](C)O)[C@@H](C)CC)C(C)C)C(=O)N[C@@H](CCCCNC(=O)[C@@H](N)CCCCNC(=O)CC[C@H](NC(=O)CC[C@H](NC(=O)CC[C@H](NC(=O)CC[C@H](NC(=O)CC[C@H](NC(=O)CC[C@H](NC(=O)CCCCCCCCCCCCCCCCCCC(=O)O)C(=O)O)C(=O)O)C(=O)O)C(=O)O)C(=O)O)C(=O)O)C(=O)NCC(=O)NCC(=O)N1CCC[C@H]1C(=O)N[C@@H](CO)C(=O)N[C@@H](CO)C(=O)NCC(=O)N[C@@H](C)C(=O)N[C@@H](CO)C(=O)N[C@@H](CC(C)C)C(=O)N[C@@H](CCCNC(=N)N)C(=O)N[C@H](Cc1c[nH]cn1)C(=O)N[C@@H](Cc1ccc(O)cc1)C(=O)N[C@@H](Cc1ccc(O)cc1)C(=O)N[C@@H](CC(N)=O)C(=O)N[C@@H](Cc1c[nH]c2ccccc12)C(=O)N[C@@H](CC(C)C)C(=O)N[C@H](C(=O)N[C@H](CCCNC(=N)N)C(=O)N[C@@H](CCC(N)=O)C(=O)N[C@@H](CCCNC(=N)N)C(=O)N[C@H](Cc1ccc(O)cc1)C(N)=O)[C@@H](C)O` [Compound 21, Y-Aib-E-G-T-F-T-S-D-Y-S-I-Aib-L-E-K-Q-A-Q-Aib-A-F-V-E-W-L-I-K(1,3)-G-G-P-S-S-G-A-S-L-R-DHis-Y-Y-N-W-L-T-DArg-Q-R-DTyr-NH2.C20DA-gGlu-gGlu-gGlu-gGlu-gGlu-gGlu-eLys(1,2)], for which the pEC50 in test [1] (setting [4]) is 9.96; in test [1] (setting [5]) it was 8.78; in test [2] (setting [6]) it was < 7.00; in test [2] (setting [7]) it was < 6.00; in test [3] (setting [8]), 9.85; in test [3] (setting [9]), 9.06.
For the compound “H-Y[Aib]EGTFTSDYSI[Aib]LEKQAQ[Aib]AFVQWLIK([γGlu-γGlu-γGlu-γGlu-γGlu-γGlu-C18 diacid])GGPSEGASLRHYYNWLTRQRY-NH2 [Compound 252, Y-Aib-E-G-T-F-T-S-D-Y-S-I-Aib-L-E-K-Q-A-Q-Aib-A-F-V-Q-W-L-I-K(1,3)-GGPSEGASLRHYYNWLTRQRY-NH2.C18DA-gGlu-gGlu-gGlu-gGlu-gGlu-gGlu(1,2)]”, the pEC50 in test [1] (setting [4]) was 10.00; in test [1] (setting [5]), 8.59; in test [2] (setting [7]), 7.47; in test [3] (setting [8]), 9.54; in test [3] (setting [9]) it was 8.90.
Consider “H-Y[Aib]EGTFTSDYSI[Aib]LEKQAQ[Aib]AFVEWLIK([εLys-γGlu-γGlu-γGlu-γGlu-γGlu-γGlu-C20 diacid])GGPSTGASLRHYYNWLTRQRY-NH2 [Compound 244, Y-Aib-E-G-T-F-T-S-D-Y-S-I-Aib-L-E-K-Q-A-Q-Aib-A-F-V-E-W-L-I-K(1,3)-GGPSTGASLRHYYNWLTRQRY-NH2.C20DA-gGlu-gGlu-gGlu-gGlu-gGlu-gGlu-eLys(1,2)]”, for which the pEC50 in test [1] (setting [4]) was 9.72; in test [2] (setting [6]) it was 7.87; in test [3] (setting [8]) it was 9.49.
As to “H-Y[Aib]EGTFTSDYSI[Aib]LEKQAQ[Aib]AFVEWLIK([γGlu-γGlu-γGlu-γGlu-C18 diacid])GGPSEGASLRHYYNWLTRQRY-NH2 [Compound 294, Y-Aib-E-G-T-F-T-S-D-Y-S-I-Aib-L-E-K-Q-A-Q-Aib-A-F-V-E-W-L-I-K(1,3)-GGPSEGASLRHYYNWLTRQRY-NH2.C18DA-gGlu-gGlu-gGlu-gGlu(1,2)]”, the pEC50 in test [1] (setting [4]) was 10.10; in test [2] (setting [7]), 7.26; in test [3] (setting [8]), 9.68; in test [3] (setting [9]) it was 9.05.
`CC[C@H](C)[C@H](NC(=O)[C@H](CC(C)C)NC(=O)[C@H](Cc1c[nH]c2ccccc12)NC(=O)[C@H](CCC(=O)O)NC(=O)[C@@H](NC(=O)[C@H](Cc1ccccc1)NC(=O)[C@H](C)NC(=O)C(C)(C)NC(=O)[C@H](CCC(N)=O)NC(=O)[C@H](C)NC(=O)[C@H](CCC(N)=O)NC(=O)[C@H](CCCCN)NC(=O)[C@H](CCC(=O)O)NC(=O)[C@H](CC(C)C)NC(=O)C(C)(C)NC(=O)[C@@H](NC(=O)[C@H](CO)NC(=O)[C@H](Cc1ccc(O)cc1)NC(=O)[C@H](CC(=O)O)NC(=O)[C@H](CO)NC(=O)[C@@H](NC(=O)[C@H](Cc1ccccc1)NC(=O)[C@@H](NC(=O)CNC(=O)[C@H](CCC(=O)O)NC(=O)C(C)(C)NC(=O)[C@@H](N)Cc1ccc(O)cc1)[C@@H](C)O)[C@@H](C)O)[C@@H](C)CC)C(C)C)C(=O)N[C@@H](CCCCNC(=O)[C@@H](N)CCCCNC(=O)CC[C@H](NC(=O)CC[C@H](NC(=O)CC[C@H](NC(=O)CC[C@H](NC(=O)CC[C@H](NC(=O)CC[C@H](NC(=O)CCCCCCCCCCCCCCCCCCC(=O)O)C(=O)O)C(=O)O)C(=O)O)C(=O)O)C(=O)O)C(=O)O)C(=O)NCC(=O)NCC(=O)N1CCC[C@H]1C(=O)N[C@@H](CO)C(=O)N[C@@H](CO)C(=O)NCC(=O)N[C@@H](C)C(=O)N[C@@H](CO)C(=O)N[C@H](CC(C)C)C(=O)N[C@@H](CCCNC(=N)N)C(=O)N[C@H](Cc1c[nH]cn1)C(=O)N[C@@H](Cc1ccc(O)cc1)C(=O)N[C@@H](Cc1ccc(O)cc1)C(=O)N[C@@H](CC(N)=O)C(=O)N[C@@H](Cc1c[nH]c2ccccc12)C(=O)N[C@@H](CC(C)C)C(=O)N[C@H](C(=O)N[C@H](CCCNC(=N)N)C(=O)N[C@@H](CCC(N)=O)C(=O)N[C@@H](CCCNC(=N)N)C(=O)N[C@H](Cc1ccc(O)cc1)C(N)=O)[C@@H](C)O` [Compound 5, Y-Aib-E-G-T-F-T-S-D-Y-S-I-Aib-L-E-K-Q-A-Q-Aib-A-F-V-E-W-L-I-K(1,3)-G-G-P-S-S-G-A-S-DLeu-R-DHis-Y-Y-N-W-L-T-DArg-Q-R-DTyr-NH2.C20DA-gGlu-gGlu-gGlu-gGlu-gGlu-gGlu-eLys(1,2)]: the pEC50 was 9.96 in test [1] (setting [4]); < 7.00 in test [2] (setting [6]); < 6.00 in test [2] (setting [7]); 9.77 in test [3] (setting [8]); 8.97 in test [3] (setting [9]).
As for “I: Y[Aib]EGTFTSDYSI[Aib]LEKQAQ[Aib]AFVQWLIKGGPSEGASLRHYYNWLTRQRY-NH2 / II: {C20 diacid}-EEEEE[εLys] (amide I:28-II:C) [Compound 240, Y-Aib-E-G-T-F-T-S-D-Y-S-I-Aib-L-E-K-Q-A-Q-Aib-A-F-V-Q-W-L-I-K(1,3)-GGPSEGASLRHYYNWLTRQRY-NH2.C20DA-E-E-E-E-E-eLys(1,2)]”, the pEC50 was 9.85 in test [1] (setting [4]); 8.17 in test [1] (setting [5]); 7.97 in test [2] (setting [6]); 9.48 in test [3] (setting [8]); 8.71 in test [3] (setting [9]).
Take “H-Y[Aib]EGTFTSDYSI[Aib]LEEQAQ[Aib]AFVEWLIK([εLys-γGlu-γGlu-γGlu-γGlu-γGlu-γGlu-C20 diacid])GGPSSGQSLRHYYNWLTRQRY-NH2 [Compound 31, Y-Aib-E-G-T-F-T-S-D-Y-S-I-Aib-L-E-E-Q-A-Q-Aib-A-F-V-E-W-L-I-K(1,3)-GGPSSGQSLRHYYNWLTRQRY-NH2.C20DA-gGlu-gGlu-gGlu-gGlu-gGlu-gGlu-eLys(1,2)]”: the values for the pEC50 in test [1] (setting [4]), in test [2] (setting [6]) and in test [3] (setting [8]) were 10.22, 7.87 and 9.82, respectively.
Turning to “H-Y[Aib]EGTFTSDYSI[Aib]LEKQAQ[Aib]AFVQWLIK([AEEA-AEEA-Glu-Glu-Glu-Glu-C18 diacid])GGPEEGASLRHYYNWLTRQRY-NH2 [Compound 177, Y-Aib-E-G-T-F-T-S-D-Y-S-I-Aib-L-E-K-Q-A-Q-Aib-A-F-V-Q-W-L-I-K(1,3)-GGPEEGASLRHYYNWLTRQRY-NH2.C18DA-E-E-E-E-OEG-OEG(1,2)]”, the pEC50 was 9.80 in test [1] (setting [4]), 7.73 in test [2] (setting [6]), 6.94 in test [2] (setting [7]) and 9.55 in test [3] (setting [8]).
